Columns and labels:
expanded CD3+ T cells = test: T cell enhancement of cytokines: IL2 measurement (HTRF) in expanded CD3+ T cells stimulated with anti-CD3/anti-CD28; format: cell-based, human; details: IL-2 measurement
Description: T cells are isolated from whole blood of healthy donors by immunomagnetic negative selection following manufacture's protocol (StemCell Technologies, human T cell isolation kit). Purity of isolated cells is assessed by flow cytometry and yields 95-98% CD3^+ T cells. For expansion of T cells, 1×10^6 cells/well are plated in serum free cell expansion media (ThermoFisher) containing 30 U of recombinant human IL2 (R&D) and stimulated with 25 ul of CD3/CD28 beads (Invitrogen) in 24 well plates for 3-4 days. T cells are then expanded in 175 cm flasks and maintained at a cell density of 1 to 2.5×10^6 cells/ml days by addition of ⅔ of fresh media every 2-3 days. After 10-14 days, cells are frozen in BamBanker freezing media (Thermo) and stored in liquid nitrogen.
For IL2 measurement, expanded CD3^+ T cells are dispensed at 100K cells/well (cultured in X-VIVO 10 Serum-free media) and are stimulated with plate-bound anti-CD3 and soluble anti-CD28 in the presence of vehicle or compound of the disclosure at various concentrations for 24 h. As outlined in the manufacturer's protocol (Cisbio), 16 μL of conditioned media is transferred to a white 384-well low volume plate. Following a 24 h incubation with the anti-IL2 antibodies, the homogenous time resolved fluorescence (HTRF) is measured.

MAP4K1 (HPK1) = MAP4K1 (HPK1) (Homo sapiens (Human), UniProt Q92918); test: MAP4K1 (HPK1) biochemical enzymatic activity, electrophoretic mobility shift (EZReader 2), ATP at APPKM (26 μM)
Sequence of MAP4K1 (HPK1) (Q92918 whole entry): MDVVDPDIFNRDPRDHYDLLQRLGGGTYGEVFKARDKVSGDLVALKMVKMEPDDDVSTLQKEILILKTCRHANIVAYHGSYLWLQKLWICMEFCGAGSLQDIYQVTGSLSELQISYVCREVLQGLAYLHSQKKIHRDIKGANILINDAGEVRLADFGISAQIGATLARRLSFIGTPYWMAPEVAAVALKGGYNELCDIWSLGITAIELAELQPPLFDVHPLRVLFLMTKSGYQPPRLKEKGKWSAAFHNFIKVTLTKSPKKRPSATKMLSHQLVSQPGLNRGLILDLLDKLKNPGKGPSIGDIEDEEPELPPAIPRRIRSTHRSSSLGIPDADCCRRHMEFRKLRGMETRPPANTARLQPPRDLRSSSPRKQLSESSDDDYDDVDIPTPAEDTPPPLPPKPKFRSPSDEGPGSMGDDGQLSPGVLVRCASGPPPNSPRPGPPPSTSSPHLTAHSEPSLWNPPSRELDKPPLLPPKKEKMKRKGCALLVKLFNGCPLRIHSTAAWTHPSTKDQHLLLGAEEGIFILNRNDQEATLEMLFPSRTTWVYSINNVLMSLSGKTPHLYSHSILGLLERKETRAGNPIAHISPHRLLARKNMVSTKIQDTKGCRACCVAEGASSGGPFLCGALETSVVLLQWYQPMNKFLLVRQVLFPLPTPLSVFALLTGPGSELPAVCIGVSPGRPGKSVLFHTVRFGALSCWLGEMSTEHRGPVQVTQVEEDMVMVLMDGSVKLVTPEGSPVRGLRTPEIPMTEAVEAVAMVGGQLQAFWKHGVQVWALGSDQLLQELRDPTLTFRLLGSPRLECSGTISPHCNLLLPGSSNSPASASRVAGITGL
In short: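 Enzyme at 0.1-15 nM was incubated with 1.5 μM fluorescent peptide and ATP at the apparent Km (26 μM) in HEPES pH 7.5, MgCl2, DTT and Brij 35. The reaction ran at 25° C for 60-180 min with a 10-point, 4-fold compound series (1% DMSO) and was stopped with EDTA. Substrate and product peptides were resolved by microfluidic mobility shift, and their peak ratio gave activity.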

[1] = Homo sapiens, T-cell, class designation
[2] = Homo sapiens, T-cell, numeric value

Row | SMILES | EC50 (expanded CD3+ T cells; [1]) | EC50 (expanded CD3+ T cells; [2]) | IC50 (MAP4K1 (HPK1); class designation) | IC50 (MAP4K1 (HPK1); numeric value) | EC50 (expanded CD3+ T cells; class designation) | EC50 (expanded CD3+ T cells; numeric value)
1 | C[C@@H]1c2nc(Nc3cc4c(C(C)(C)N)cnc(OC5CC5)c4cn3)ccc2C(=O)OC1(C)C [Compound 71] | < 35 nM | 7.9 nM | < 0.3 nM | 0.11 nM | – | –
2 | CC1(C)Cc2nc(Nc3cc4c(C(C)(C)N)cnc(OC5CCC5)c4cn3)ccc2C(=O)O1 [Compound 72, 2-((5-(2-Aminopropan-2-yl)-8-cyclobutoxy-2,7-naphthyridin-3-yl)amino)-7,7-dimethyl-7,8-dihydro-5H-pyrano[4,3-b]pyridin-5-one] | 35.1 to 45 nM | 35.5 nM | 0.31 to 1 nM | – | – | –
3 | CC1(C)Cc2nc(Nc3cc4c(C(C)(C)N)cnc(OCC(F)F)c4cn3)ccc2C(=O)O1 [Compound 73] | < 35 nM | 23.7 nM | < 0.3 nM | 0.22 nM | – | –
4 | CC1(C)Cc2nc(Nc3cc4c([C@](C)(N)C5CC5)cnc(OC5CC5)c4cn3)ccc2C(=O)O1 [Compound 74, R-2-((5-(1-amino-1-cyclopropylethyl)-8-cyclopropoxy-2,7-naphthyridin-3-yl)amino)-7,7-dimethyl-7,8-dihydro-5H-pyrano[4,3-b]pyridin-5-one] | < 35 nM | 22.2 nM | < 0.3 nM | 0.12 nM | – | –
5 | CC1(C)Cc2nc(Nc3cc4c(C(C)(C)N)cnc(OCC(F)(F)F)c4cn3)ccc2C(=O)O1 [Compound 77] | < 35 nM | 32.5 nM | 0.31 to 1 nM | 0.65 nM | – | –
6 | C[C@@H]1OC(=O)c2ccc(Nc3cc4c(C(C)(C)N)cnc(OCC(F)(F)F)c4cn3)nc2[C@H]1C [Compound 78] | < 35 nM | 11.6 nM | < 0.3 nM | 0.19 nM | – | –
7 | CC[C@@](C)(N)c1cnc(OC2CC2)c2cnc(Nc3ccc4c(n3)[C@@H](C)[C@H](C)OC4=O)cc12 [Compound 80] | – | – | < 0.3 nM | 0.08 nM | < 35 nM | 4.1 nM
8 | C[C@@H]1OC(=O)c2ccc(Nc3cc4c(C(C)(C)N)cnc(OC5(C)CC5)c4cn3)nc2[C@H]1C [Compound 82] | < 35 nM | 20.8 nM | < 0.3 nM | 0.16 nM | – | –
9 | C[C@@H]1c2nc(Nc3cc4c(C(C)(C)N)cnc(OC5(C)CC5)c4cn3)ccc2C(=O)OC1(C)C [Compound 83] | < 35 nM | 28.7 nM | < 0.3 nM | 0.19 nM | – | –
10 | CC[C@](C)(N)c1cnc(OC2(C)CC2)c2cnc(Nc3ccc4c(n3)[C@@H](C)[C@H](C)OC4=O)cc12 [Compound 85] | – | – | < 0.3 nM | 0.22 nM | 35.1 to 45 nM | 36.1 nM
11 | CC[C@](C)(N)c1cnc(OC2(C)CC2)c2cnc(Nc3ccc4c(n3)[C@@H](C)C(C)(C)OC4=O)cc12 [Compound 87] | – | – | 0.31 to 1 nM | 0.44 nM | < 35 nM | 31.6 nM
12 | C[C@@H]1OC(=O)c2ccc(Nc3cc4c([C@@](C)(N)C5CC5)cnc(OC5(C)CC5)c4cn3)nc2[C@H]1C [Compound 88] | – | – | < 0.3 nM | 0.16 nM | < 35 nM | 11.5 nM
13 | C[C@@H]1c2nc(Nc3cc4c([C@](C)(N)C5CC5)cnc(OC5(C)CC5)c4cn3)ccc2C(=O)OC1(C)C [Compound 91] | – | – | < 0.3 nM | 0.1 nM | < 35 nM | 15.1 nM
14 | CC[C@](C)(N)c1cnc(OC2(C)CC2)c2cnc(Nc3ccc4c(n3)[C@@H](C)[C@@H](C)OC4=O)cc12 [Compound 92] | – | – | < 0.3 nM | 0.25 nM | < 35 nM | 15.4 nM
15 | C[C@@H]1c2nc(Nc3cc4c([C@](C)(N)C5CC5)cnc(OC5(C)CC5)c4cn3)ccc2C(=O)O[C@@H]1C [Compound 94] | – | – | < 0.3 nM | 0.14 nM | < 35 nM | 23.5 nM
16 | CC[C@@](C)(N)c1cnc(OC2CC2)c2cnc(Nc3ccc4c(n3)[C@@H](C)[C@@H](C)OC4=O)cc12 [Compound 96] | < 35 nM | 9.4 nM | < 0.3 nM | – | – | –
17 | COc1ncc([C@](C)(N)C2CC2)c2cc(Nc3ccc4c(n3)[C@@H](C)C(C)(C)OC4=O)ncc12 [Compound 101] | – | – | < 0.3 nM | 0.11 nM | < 35 nM | 20.8 nM
18 | COc1ncc([C@@](C)(N)C2CC2)c2cc(Nc3ccc4c(n3)[C@@H](C)C(C)(C)OC4=O)ncc12 [Compound 102] | – | – | 1.1 to 10 nM | 1.87 nM | < 35 nM | 28.7 nM
19 | COc1ccc(C(C)(C)N)c2cc(Nc3ccc4c(n3)CC(C)(C)OC4=O)ncc12 [Compound 103] | < 35 nM | 3.1 nM | < 0.3 nM | 0.11 nM | – | –

From patent US11534441B2, “MAP4K1 inhibitors” (Blueprint Medicines Corporation, priority 2020, dated 2022)
